{"source": "paper PMC7316778", "about": "(Nature Communications, 2020)", "key": {"[1]": {"biological_target": "MAPK8 (JNK1) (Homo sapiens, UniProt P45983)", "sequence (P45983 whole entry)": "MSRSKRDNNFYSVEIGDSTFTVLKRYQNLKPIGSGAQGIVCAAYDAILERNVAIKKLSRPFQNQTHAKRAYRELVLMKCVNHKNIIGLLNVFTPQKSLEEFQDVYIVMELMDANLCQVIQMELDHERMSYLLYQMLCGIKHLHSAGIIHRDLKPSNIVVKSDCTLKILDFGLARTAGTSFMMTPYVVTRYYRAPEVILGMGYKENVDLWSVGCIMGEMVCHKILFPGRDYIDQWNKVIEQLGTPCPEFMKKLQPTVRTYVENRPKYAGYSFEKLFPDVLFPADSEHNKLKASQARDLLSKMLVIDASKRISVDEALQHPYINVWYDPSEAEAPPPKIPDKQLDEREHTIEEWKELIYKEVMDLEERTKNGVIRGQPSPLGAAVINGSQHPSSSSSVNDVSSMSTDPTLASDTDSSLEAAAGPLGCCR", "assay": "SelectScreen kinase assay"}, "[2]": {"biological_target": "SNF1LK2 (Homo sapiens, UniProt Q9H0K1)", "assay": "SelectScreen kinase assay"}, "[3]": {"biological_target": "CAMKK2 (CaMKK beta) (Homo sapiens, UniProt Q96RR4)", "assay": "SelectScreen kinase assay"}, "[4]": {"biological_target": "EPHA4 (Homo sapiens, UniProt P54764)", "sequence (P54764 20-986)": "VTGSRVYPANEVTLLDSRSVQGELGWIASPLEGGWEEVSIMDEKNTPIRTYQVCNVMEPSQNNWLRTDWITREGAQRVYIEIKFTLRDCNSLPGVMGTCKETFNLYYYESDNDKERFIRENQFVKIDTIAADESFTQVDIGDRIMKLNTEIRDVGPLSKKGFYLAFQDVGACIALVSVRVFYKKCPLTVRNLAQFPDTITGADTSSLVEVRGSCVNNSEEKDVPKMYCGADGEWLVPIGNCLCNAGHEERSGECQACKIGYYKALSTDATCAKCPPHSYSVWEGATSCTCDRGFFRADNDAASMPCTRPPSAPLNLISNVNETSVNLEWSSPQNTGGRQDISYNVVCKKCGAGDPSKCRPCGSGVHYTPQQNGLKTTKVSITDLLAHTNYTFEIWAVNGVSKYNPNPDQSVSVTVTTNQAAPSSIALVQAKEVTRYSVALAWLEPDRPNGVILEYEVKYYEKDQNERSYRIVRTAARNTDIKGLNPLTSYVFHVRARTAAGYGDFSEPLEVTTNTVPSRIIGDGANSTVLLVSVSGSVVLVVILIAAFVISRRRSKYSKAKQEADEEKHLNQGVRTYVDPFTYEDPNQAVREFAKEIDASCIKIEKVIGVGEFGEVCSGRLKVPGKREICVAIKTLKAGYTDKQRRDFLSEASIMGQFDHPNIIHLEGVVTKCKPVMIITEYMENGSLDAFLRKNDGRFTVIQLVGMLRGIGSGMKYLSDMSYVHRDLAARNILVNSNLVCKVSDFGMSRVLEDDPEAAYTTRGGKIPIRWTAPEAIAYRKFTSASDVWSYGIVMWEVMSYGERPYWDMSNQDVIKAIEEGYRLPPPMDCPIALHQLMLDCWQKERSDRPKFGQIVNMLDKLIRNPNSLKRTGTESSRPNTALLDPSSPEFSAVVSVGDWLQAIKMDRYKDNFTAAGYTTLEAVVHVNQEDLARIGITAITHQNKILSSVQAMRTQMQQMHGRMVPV", "assay": "SelectScreen kinase assay"}, "[5]": {"biological_target": "T1, NUAK1 (ARK5) (Homo sapiens, UniProt O60285)", "T1 sequence (O60285 1-661)": "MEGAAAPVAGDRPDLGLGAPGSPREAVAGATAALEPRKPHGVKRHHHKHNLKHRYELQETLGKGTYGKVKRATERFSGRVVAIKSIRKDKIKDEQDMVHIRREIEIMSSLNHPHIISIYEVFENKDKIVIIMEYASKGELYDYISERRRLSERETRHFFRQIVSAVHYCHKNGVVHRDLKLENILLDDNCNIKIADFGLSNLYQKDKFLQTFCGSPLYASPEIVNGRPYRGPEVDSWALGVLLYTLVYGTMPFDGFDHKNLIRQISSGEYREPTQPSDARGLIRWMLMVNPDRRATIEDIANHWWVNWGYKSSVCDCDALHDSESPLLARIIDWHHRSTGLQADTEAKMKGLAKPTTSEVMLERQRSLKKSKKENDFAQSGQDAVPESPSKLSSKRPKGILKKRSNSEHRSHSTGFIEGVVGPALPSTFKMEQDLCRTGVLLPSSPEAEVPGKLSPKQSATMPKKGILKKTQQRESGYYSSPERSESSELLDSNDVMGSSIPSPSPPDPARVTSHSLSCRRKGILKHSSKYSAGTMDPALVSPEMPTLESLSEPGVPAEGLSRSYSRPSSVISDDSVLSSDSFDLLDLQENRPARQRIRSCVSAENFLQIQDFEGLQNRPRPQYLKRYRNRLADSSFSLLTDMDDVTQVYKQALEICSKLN", "assay": "SelectScreen kinase assay"}, "[6]": {"biological_target": "T2, NUAK2 (Homo sapiens, UniProt Q9H093)", "T2 sequence (Q9H093 1-628)": "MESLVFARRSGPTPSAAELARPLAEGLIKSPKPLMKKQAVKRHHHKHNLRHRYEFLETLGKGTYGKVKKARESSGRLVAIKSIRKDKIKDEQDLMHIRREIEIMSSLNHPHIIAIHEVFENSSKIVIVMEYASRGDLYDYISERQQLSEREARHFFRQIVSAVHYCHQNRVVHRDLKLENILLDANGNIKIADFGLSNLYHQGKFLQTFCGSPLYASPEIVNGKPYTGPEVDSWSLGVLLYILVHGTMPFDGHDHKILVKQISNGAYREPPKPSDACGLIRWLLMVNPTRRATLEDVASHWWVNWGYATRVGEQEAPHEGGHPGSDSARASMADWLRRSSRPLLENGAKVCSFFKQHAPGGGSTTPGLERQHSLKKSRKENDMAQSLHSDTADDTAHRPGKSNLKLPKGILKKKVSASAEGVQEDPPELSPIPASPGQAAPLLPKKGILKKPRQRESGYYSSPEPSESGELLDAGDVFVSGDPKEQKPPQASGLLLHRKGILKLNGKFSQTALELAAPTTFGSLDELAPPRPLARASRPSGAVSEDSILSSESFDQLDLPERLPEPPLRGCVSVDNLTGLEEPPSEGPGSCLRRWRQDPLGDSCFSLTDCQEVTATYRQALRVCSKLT", "assay": "SelectScreen kinase assay"}, "[7]": {"biological_target": "DDR1 (Homo sapiens, UniProt Q08345)", "assay": "SelectScreen kinase assay"}, "[8]": {"biological_target": "RPS6KA6 (RSK4) (Homo sapiens, UniProt Q9UK32)", "sequence (Q9UK32 whole entry)": "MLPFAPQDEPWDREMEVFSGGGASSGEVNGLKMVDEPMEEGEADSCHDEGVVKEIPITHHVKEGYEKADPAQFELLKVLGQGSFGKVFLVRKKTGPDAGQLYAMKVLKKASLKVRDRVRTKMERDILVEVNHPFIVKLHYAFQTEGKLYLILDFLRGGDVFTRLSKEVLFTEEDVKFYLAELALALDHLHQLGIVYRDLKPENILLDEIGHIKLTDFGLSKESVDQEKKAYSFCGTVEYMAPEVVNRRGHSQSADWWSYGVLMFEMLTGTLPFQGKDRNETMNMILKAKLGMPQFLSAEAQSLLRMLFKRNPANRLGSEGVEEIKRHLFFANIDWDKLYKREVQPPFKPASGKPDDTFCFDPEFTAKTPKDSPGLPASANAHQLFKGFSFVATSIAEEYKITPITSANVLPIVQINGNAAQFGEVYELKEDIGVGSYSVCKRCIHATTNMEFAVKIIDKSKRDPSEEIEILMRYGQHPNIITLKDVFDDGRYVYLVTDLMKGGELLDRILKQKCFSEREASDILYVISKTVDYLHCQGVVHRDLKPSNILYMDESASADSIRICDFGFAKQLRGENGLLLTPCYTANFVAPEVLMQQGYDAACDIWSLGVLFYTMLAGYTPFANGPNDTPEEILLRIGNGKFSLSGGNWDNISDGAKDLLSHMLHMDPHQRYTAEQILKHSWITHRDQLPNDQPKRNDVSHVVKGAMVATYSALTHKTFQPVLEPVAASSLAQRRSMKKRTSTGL", "assay": "SelectScreen kinase assay"}, "[9]": {"biological_target": "STK39 (STLK3) (Homo sapiens, UniProt Q9UEW8)", "assay": "SelectScreen kinase assay"}, "[10]": {"biological_target": "PLK2 (Homo sapiens, UniProt Q9NYY3)", "assay": "SelectScreen kinase assay"}, "[11]": {"biological_target": "MKNK1 (MNK1) (Homo sapiens, UniProt Q9BUB5)", "sequence (Q9BUB5 whole entry)": "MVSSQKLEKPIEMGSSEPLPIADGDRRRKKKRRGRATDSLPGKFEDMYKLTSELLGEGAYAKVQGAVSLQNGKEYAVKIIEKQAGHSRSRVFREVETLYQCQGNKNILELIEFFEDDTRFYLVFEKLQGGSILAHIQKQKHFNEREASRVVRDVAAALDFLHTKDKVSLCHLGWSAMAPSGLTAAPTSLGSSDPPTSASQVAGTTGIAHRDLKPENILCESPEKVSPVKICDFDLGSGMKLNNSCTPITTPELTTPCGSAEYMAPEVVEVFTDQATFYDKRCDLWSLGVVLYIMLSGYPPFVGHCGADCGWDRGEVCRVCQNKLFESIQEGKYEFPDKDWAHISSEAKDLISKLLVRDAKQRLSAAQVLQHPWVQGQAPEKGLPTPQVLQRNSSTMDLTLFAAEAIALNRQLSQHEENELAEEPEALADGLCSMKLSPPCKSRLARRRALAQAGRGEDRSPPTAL", "assay": "SelectScreen kinase assay"}, "[12]": {"biological_target": "RPS6KA4 (MSK2) (Homo sapiens, UniProt O75676)", "sequence (O75676 whole entry)": "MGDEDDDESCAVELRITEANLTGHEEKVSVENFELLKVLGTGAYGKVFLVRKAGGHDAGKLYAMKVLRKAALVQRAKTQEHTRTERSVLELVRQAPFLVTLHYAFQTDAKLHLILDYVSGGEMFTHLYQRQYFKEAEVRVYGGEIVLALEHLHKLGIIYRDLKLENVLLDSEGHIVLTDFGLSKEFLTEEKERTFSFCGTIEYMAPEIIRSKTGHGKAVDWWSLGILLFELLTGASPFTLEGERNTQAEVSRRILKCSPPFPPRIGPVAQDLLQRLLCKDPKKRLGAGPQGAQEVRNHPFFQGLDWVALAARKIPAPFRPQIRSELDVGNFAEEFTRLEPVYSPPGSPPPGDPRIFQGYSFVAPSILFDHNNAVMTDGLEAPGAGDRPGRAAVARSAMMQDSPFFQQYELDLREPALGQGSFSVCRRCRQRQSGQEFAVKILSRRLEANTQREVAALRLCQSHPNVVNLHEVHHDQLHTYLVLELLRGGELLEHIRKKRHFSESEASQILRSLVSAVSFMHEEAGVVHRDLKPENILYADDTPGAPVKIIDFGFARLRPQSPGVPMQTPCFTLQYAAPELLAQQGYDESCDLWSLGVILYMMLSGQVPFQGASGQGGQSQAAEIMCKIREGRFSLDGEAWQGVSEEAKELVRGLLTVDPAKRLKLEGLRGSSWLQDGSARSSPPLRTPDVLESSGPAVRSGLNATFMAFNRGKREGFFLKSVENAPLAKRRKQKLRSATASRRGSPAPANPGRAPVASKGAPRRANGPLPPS", "assay": "SelectScreen kinase assay"}, "[13]": {"biological_target": "FES^S700C (Homo sapiens, UniProt P07332, S700C)", "assay": "In situ two-step labeling of transfected HEK293T cells (click chemistry)", "format": "cell-based", "design": "expressed in transfected cells; host or cells: HEK293T (transient, PEI)"}, "[14]": {"biological_target": "AKT2 (PKB beta) (Homo sapiens, UniProt P31751)", "sequence (P31751 whole entry)": "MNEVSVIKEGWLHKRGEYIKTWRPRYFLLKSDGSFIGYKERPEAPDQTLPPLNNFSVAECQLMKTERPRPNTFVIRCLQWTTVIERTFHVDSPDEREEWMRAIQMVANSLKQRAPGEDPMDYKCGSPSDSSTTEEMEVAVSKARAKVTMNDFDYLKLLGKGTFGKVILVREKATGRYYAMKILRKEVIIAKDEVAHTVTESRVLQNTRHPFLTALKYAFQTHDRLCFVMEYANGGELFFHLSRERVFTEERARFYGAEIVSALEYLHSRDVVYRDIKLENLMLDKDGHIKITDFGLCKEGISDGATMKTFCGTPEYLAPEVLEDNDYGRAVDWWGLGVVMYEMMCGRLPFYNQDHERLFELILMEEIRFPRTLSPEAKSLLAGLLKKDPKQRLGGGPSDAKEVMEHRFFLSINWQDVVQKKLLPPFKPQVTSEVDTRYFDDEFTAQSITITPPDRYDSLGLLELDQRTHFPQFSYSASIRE", "assay": "SelectScreen kinase assay", "settings": "for Inhibition at 1 µM (%): AKT2 (PKB beta), ZLYTE, ATP Km app"}, "[15]": {"biological_target": "CDK3/cyclin E1 (Homo sapiens, UniProt Q00526)", "sequence (Q00526 whole entry)": "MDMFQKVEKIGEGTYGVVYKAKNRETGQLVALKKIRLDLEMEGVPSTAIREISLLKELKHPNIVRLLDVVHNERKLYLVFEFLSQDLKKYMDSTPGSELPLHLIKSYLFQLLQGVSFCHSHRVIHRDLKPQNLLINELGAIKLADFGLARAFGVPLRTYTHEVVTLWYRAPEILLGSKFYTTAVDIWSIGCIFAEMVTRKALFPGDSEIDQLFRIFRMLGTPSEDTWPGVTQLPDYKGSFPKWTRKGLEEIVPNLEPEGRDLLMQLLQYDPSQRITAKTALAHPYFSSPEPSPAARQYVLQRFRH", "sequence (P24864 whole entry partner)": "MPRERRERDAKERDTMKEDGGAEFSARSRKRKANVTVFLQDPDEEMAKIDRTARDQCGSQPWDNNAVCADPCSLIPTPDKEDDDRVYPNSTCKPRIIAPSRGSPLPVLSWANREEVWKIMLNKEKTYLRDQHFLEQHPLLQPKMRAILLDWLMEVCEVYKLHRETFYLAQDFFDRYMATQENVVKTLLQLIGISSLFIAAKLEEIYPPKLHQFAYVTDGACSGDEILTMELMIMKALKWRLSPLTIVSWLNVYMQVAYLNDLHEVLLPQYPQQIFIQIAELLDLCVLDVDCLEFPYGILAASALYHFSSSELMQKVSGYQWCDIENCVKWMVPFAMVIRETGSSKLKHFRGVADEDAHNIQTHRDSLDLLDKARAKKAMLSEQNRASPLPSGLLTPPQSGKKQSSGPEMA", "assay": "SelectScreen kinase assay", "settings": "for Inhibition at 1 µM (%): CDK3/cyclin E1, LanthaScreen Binding"}, "[16]": {"biological_target": "PIM3 (Homo sapiens, UniProt Q86V86)", "assay": "SelectScreen kinase assay"}, "[17]": {"biological_target": "DYRK1B (Homo sapiens, UniProt Q9Y463)", "assay": "SelectScreen kinase assay", "settings": "1 h, 1 μM WEL028, 1 h preincubation"}, "[18]": {"settings": "1 µM, ZLYTE, ATP Km app, listed as WEL028, 1 µM"}, "[19]": {"settings": "1 h, 1 μM WEL028, 1 h preincubation"}}, "note": "“And” between values parts separate entries of the source, which are not always exact repeats. Equal values may be shown once. Read-outs that look alike come from different tables or passages of the source.", "data": [{"smiles": "C#CCOc1ccc(Nc2ncc(Cl)c(Nc3ccccc3NC(=O)C=C)n2)c(OC)c1", "note": "[Compound 6]", "values": [{"measurement": "Inhibition (%)", "setting": "[1]; 1 μM WEL028, 1 h preincubation", "value": 16, "unit": "%"}, {"measurement": "Inhibition at 1 µM (%)", "setting": "[1]; MAPK8 (JNK1), 1 µM, ZLYTE, ATP 100, listed as WEL028, 1 µM", "value": 22, "unit": "%"}, {"measurement": "inhibition at 1 µM", "setting": "[1]; read-out: Inhibition at 1 µM (%), MAPK8 (JNK1), 1 µM, ZLYTE, ATP 100", "value": 11, "unit": "%"}, {"measurement": "Inhibition at 1 µM (%)", "setting": "[2]; [18]", "value": "-8% and -5%"}, {"measurement": "inhibition at 1 µM", "setting": "[2]; [19]", "value": -6, "unit": "%"}, {"measurement": "inhibition at 1 µM", "setting": "[3]; 1 h", "value": 23, "unit": "%"}, {"measurement": "inhibition at 1 µM", "setting": "[3]; read-out: Inhibition at 1 µM (%)", "value": 23, "unit": "%"}, {"measurement": "inhibition at 1 µM", "setting": "[4]; [19]", "value": 5, "unit": "%"}, {"measurement": "Inhibition at 1 µM (%)", "setting": "[4]; EPHA4, 1 µM, ZLYTE, ATP Km app, listed as WEL028, 1 µM", "value": 4, "unit": "%"}, {"measurement": "inhibition at 1 µM", "setting": "[4]; read-out: Inhibition at 1 µM (%), EPHA4, 1 µM, ZLYTE, ATP Km app", "value": 5, "unit": "%"}, {"measurement": "Inhibition (%)", "setting": "[5]; 1 μM WEL028, 1 h preincubation", "value": 35, "unit": "%"}, {"measurement": "Inhibition at 1 µM (%)", "setting": "[5]; NUAK1 (ARK5), 1 µM, Adapta, ATP Km app, listed as WEL028, 1 µM", "value": 41, "unit": "%"}, {"measurement": "inhibition at 1 µM", "setting": "[5]; read-out: Inhibition at 1 µM (%), NUAK1 (ARK5), 1 µM, Adapta, ATP Km app", "value": 30, "unit": "%"}, {"measurement": "Inhibition (%)", "setting": "[6]; 1 μM WEL028, 1 h preincubation", "value": 24, "unit": "%"}, {"measurement": "Inhibition at 1 µM (%)", "setting": "[6]; NUAK2, 1 µM, LanthaScreen Binding, listed as WEL028, 1 µM", "value": 30, "unit": "%"}, {"measurement": "inhibition at 1 µM", "setting": "[6]; read-out: Inhibition at 1 µM (%), NUAK2, 1 µM, LanthaScreen Binding", "value": 18, "unit": "%"}, {"measurement": "inhibition at 1 µM", "setting": "[7]; [19]", "value": -2, "unit": "%"}, {"measurement": "Inhibition at 1 µM (%)", "setting": "[7]; DDR1, 1 µM, LanthaScreen Binding, listed as WEL028, 1 µM", "value": -3, "unit": "%"}, {"measurement": "Inhibition (%)", "setting": "[8]; 1 μM WEL028, 1 h preincubation", "value": 5, "unit": "%"}, {"measurement": "Inhibition at 1 µM (%)", "setting": "[8]; [18]", "value": "1% and 9%"}, {"measurement": "Inhibition at 1 µM (%)", "setting": "[9]; 1 µM, LanthaScreen Binding, listed as WEL028, 1 µM", "value": 6, "unit": "%"}, {"measurement": "inhibition at 1 µM", "setting": "[9]; [19]", "value": 8, "unit": "%"}, {"measurement": "inhibition at 1 µM", "setting": "[9]; read-out: Inhibition at 1 µM (%), 1 µM, LanthaScreen Binding", "value": 11, "unit": "%"}, {"measurement": "Inhibition (%)", "setting": "[10]; 1 μM WEL028, 1 h preincubation", "value": 12, "unit": "%"}, {"measurement": "Inhibition at 1 µM (%)", "setting": "[10]; PLK2, 1 µM, ZLYTE, ATP Km app, listed as WEL028, 1 µM", "value": 15, "unit": "%"}, {"measurement": "inhibition at 1 µM", "setting": "[10]; read-out: Inhibition at 1 µM (%), PLK2, 1 µM, ZLYTE, ATP Km app", "value": 8, "unit": "%"}, {"measurement": "inhibition at 1 µM", "setting": "[11]; [19]", "value": 13, "unit": "%"}, {"measurement": "Inhibition at 1 µM (%)", "setting": "[11]; MKNK1 (MNK1), 1 µM, ZLYTE, ATP Km app", "value": 21, "unit": "%"}, {"measurement": "Inhibition at 1 µM (%)", "setting": "[12]; [18]", "value": "-4% and 6%"}, {"measurement": "inhibition at 1 µM", "setting": "[12]; [19]", "value": 1, "unit": "%"}, {"measurement": "Cell permeability", "setting": "[13]; living HEK293T cells", "value": "cell-permeable"}, {"measurement": "Concentration sufficient to fully block labeling of FES^S700C", "setting": "[13]; living HEK293T cells", "value": 100, "unit": "nM"}, {"measurement": "IC50", "setting": "[13]; transfected HEK293T cells treated with WEL028, click chemistry, n = 3, read-out: pIC50, labeling of FES^S700C in live cells (converted)", "value": 25.1, "unit": "nM"}, {"measurement": "inhibition at 1 µM", "setting": "[14]; [19]", "value": -1, "unit": "%"}, {"measurement": "Inhibition at 1 µM (%)", "setting": "[14]", "value": -2, "unit": "%"}, {"measurement": "Inhibition at 1 µM (%)", "setting": "[14]; listed as WEL028, 1 µM", "value": 0, "unit": "%"}, {"measurement": "Inhibition (%)", "setting": "[15]; 1 μM WEL028, 1 h preincubation", "value": 1, "unit": "%"}, {"measurement": "Inhibition at 1 µM (%)", "setting": "[15]", "value": -3, "unit": "%"}, {"measurement": "Inhibition at 1 µM (%)", "setting": "[15]; listed as WEL028, 1 µM", "value": 5, "unit": "%"}, {"measurement": "inhibition at 1 µM", "setting": "[16]; [19]", "value": 0, "unit": "%"}, {"measurement": "Inhibition at 1 µM (%)", "setting": "[16]; PIM3, 1 µM, ZLYTE, ATP Km app, listed as WEL028, 1 µM", "value": "-1% and 1%"}, {"measurement": "inhibition at 1 µM", "setting": "[17]", "value": 0, "unit": "%"}]}]}
